Earlier results in patent US20200078426A1, “TREATMENT OF CANCER BY INFUSION OF ONCOLYTIC HERPES SIMPLEX VIRUS TO THE BLOOD” (VIRTTU BIOLOGICS LIMITED, priority 2015, published 2020).

Tested on: squamous cell head and neck cancer
Conditions: concurrent chemo-radiation arm, unresectable locally advanced disease; radiation alone 23%

SMILES: N.N.[Cl][Pt][Cl] [cisplatin]
- three year overall survival: 37%
